According to patent US20260138976A1 (Hoffmann-La Roche Inc., priority 2022, published 2026):

Experiments:
primary human T-cells = assay: IL2 secretion measurements (24 h, CD3-stimulated T-cells, PBS counter screen); format: cell-based; conditions: for Emax IL2 (% activation): CD3 condition, normalised to DMSO (neutral) and 20 μM reference compound A1 = 100%; for EC50: Homo sapiens, T-cell, CD3-stimulated primary human T-cells, IL2 secretion, fitted sigmoidal curve, read-out: Tcell IL2 CD3 EC50
Outline: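 Expanded primary human T-cells (100k/well) were plated on anti-CD3-coated or PBS-only plates with compound in a 5–6 point dose response (top 20 or 10 μM final, 3.333-fold, 0.2% DMSO). IL-2 in 24 h supernatants was quantified by ProQuantum immunoassay or ELISA. Values were normalized to DMSO and 20 μM reference compound A1 (100%), giving EC50 and Emax.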

[1] = target: T1, DGKζ (hDGKzeta(1-928)-N-His) (Homo sapiens, UniProt Q13574); assay: In vitro DGK inhibition assay, DGKzeta ADP Glo (in house); format: biochemical; conditions: 2 nM DGKζ, 50 μM ATP, 125 uM DLG in liposomes, 1 hour reaction
T1 construct: hDGKzeta(1-928)-N-His; His (N); made in house; host or cells: Sf21 insect cells (baculovirus)
T1 sequence (Q13574 whole entry): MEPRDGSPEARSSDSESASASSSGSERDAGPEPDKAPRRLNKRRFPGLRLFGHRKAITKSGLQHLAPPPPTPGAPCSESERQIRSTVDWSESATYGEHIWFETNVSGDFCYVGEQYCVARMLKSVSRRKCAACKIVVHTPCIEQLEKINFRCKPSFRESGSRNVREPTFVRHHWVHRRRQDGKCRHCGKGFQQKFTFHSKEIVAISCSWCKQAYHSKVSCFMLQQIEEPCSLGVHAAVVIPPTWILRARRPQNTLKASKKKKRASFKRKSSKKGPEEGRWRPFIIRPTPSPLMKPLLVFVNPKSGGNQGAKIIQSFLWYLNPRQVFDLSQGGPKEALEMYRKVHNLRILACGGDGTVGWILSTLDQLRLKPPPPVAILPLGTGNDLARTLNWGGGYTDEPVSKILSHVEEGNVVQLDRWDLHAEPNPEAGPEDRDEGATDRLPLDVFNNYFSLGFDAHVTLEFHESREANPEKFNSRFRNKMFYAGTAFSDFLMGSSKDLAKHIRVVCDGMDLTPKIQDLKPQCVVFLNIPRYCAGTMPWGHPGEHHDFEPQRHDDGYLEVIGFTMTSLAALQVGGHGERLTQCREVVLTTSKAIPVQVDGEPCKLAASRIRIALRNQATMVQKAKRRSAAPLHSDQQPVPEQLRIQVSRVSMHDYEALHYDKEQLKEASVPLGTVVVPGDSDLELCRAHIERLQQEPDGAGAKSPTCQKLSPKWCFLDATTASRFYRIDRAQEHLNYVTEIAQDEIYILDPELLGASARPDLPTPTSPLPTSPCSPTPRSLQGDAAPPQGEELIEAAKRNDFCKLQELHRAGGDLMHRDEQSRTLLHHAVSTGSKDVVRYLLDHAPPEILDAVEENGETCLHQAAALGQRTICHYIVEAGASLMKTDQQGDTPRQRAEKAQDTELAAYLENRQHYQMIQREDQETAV
Outline: (§1)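 Full-length His-tagged human DGKα (4 nM) or DGKζ (2 nM), expressed in Sf21 cells, phosphorylated 125 µM DLG in PS/PC liposomes with ATP at 25 µM (α) or 50 µM (ζ) for 1 h. ADP was measured by ADP-Glo luminescence. Compounds were tested as 11-point 1:3 series in 2% DMSO.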

[2] = target: T2, DGKα (hDGKalpha(1-735)-N-His) (Homo sapiens, UniProt P23743); assay: In vitro DGK inhibition assay, DGKalpha ADP Glo (in house); format: biochemical; conditions: 4 nM DGKα, 25 μM ATP, 125 uM DLG in liposomes, 1 hour reaction
T2 construct: hDGKalpha(1-735)-N-His; His (N); made in house; host or cells: Sf21 insect cells (baculovirus)
T2 sequence (P23743 whole entry): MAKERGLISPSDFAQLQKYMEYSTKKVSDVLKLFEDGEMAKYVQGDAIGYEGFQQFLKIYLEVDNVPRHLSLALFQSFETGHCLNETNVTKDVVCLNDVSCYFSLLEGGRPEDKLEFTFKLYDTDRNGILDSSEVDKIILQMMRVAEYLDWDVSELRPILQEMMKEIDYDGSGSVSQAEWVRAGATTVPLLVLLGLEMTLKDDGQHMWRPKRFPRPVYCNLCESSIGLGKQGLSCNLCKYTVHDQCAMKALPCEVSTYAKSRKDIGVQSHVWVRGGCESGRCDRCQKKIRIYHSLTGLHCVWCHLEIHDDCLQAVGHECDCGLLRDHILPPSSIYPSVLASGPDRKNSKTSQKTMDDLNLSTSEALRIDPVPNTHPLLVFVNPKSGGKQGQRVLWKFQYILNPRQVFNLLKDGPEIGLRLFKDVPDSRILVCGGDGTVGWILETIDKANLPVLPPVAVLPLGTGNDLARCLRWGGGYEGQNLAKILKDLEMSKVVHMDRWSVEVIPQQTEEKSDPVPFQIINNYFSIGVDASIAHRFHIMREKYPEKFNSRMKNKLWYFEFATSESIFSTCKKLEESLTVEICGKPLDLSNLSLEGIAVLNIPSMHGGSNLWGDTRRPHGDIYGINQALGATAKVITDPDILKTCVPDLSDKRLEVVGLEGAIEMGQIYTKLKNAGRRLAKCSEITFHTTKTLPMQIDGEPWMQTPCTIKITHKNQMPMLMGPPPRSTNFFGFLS
Outline: as §1

Structure (SMILES)	IC50 [1] [nM]	IC50 [2] [nM]	Emax IL2 (% activation) (primary human T-cells)	EC50 (primary human T-cells) [nM]
CC(C)(C)c1nnc(-c2ccc3c(c2)N(Cc2ccc(-n4cc(C(F)(F)F)cn4)cc2)C(=O)[C@@H](N)CS3(=O)=O)o1 [Example 25, (3R)-3-amino-7-(5-tert-butyl-1,3,4-oxadiazol-2-yl)-1,1-dioxo-5-[[4-[4-(trifluoromethyl)pyrazol-1-yl]phenyl]methyl]-2,3-dihydro-1λ^6,5-benzothiazepin-4-one]	1270	3540	137	609
CC(C)(C)c1nnc(-c2ccc3c(c2)N(Cc2ccc(-n4ccc(C(F)(F)F)n4)cc2)C(=O)[C@@H](N)CS3(=O)=O)o1 [Example 27]	758	2950	160	476
CC(C)(C)c1nnc(-c2ccc3c(c2)N(Cc2ccc(-n4cnc(C(F)(F)F)c4)cc2)C(=O)[C@@H](N)CS3(=O)=O)o1 [Example 28, (3R)-3-amino-7-(5-tert-butyl-1,3,4-oxadiazol-2-yl)-1,1-dioxo-5-[[4-[4-(trifluoromethyl)imidazol-1-yl]phenyl]methyl]-2,3-dihydro-1λ^6,5-benzothiazepin-4-one]	4260	37300	81	5010
CC(N)(c1nnc(-c2ccc3c(c2)N(Cc2ccc(-c4noc(CC(F)(F)F)n4)cc2)C(=O)[C@@H](N)CS3(=O)=O)o1)C(F)(F)F (stereo partly drawn) [Example 33, (3R)-3-amino-7-[5-(1-amino-2,2,2-trifluoro-1-methyl-ethyl)-1,3,4-oxadiazol-2-yl]-1,1-dioxo-5-[[4-[5-(2,2,2-trifluoroethyl)-1,2,4-oxadiazol-3-yl]phenyl]methyl]-2,3-dihydro-1λ^6,5-benzothiazepin-4-one]	2640	23800	24	> 10000
CC(C)(C#N)c1nnc(-c2ccc3c(c2)N(Cc2ccc(-c4ccc(C(F)(F)F)cc4)cc2)C(=O)[C@@H](N)CS3(=O)=O)o1 [Example 46]	1260	16200	263	331
CC1(c2nnc(-c3ccc4c(c3)N(Cc3ccc(-c5ccc(C(F)(F)F)cc5)cc3)C(=O)[C@@H](N)CS4(=O)=O)o2)CCO1 (stereo partly drawn) [Example 48, (3R)-3-amino-7-[5-(2-methyloxetan-2-yl)-1,3,4-oxadiazol-2-yl]-1,1-dioxo-5-[[4-[4-(trifluoromethyl)phenyl]phenyl]methyl]-2,3-dihydro-1lambda6,5-benzothiazepin-4-one]	1590	> 62500	114	984
C[C@@](N)(c1nnc(-c2ccc3c(c2)N(Cc2ccc(-c4noc(C(F)(F)F)n4)cc2)C(=O)[C@@H](N)CS3(=O)=O)o1)C(F)(F)F [Example 52, (3R)-3-amino-7-[5-[(1R)-1-amino-2,2,2-trifluoro-1-methyl-ethyl]-1,3,4-oxadiazol-2-yl]-1,1-dioxo-5-[[4-[5-(trifluoromethyl)-1,2,4-oxadiazol-3-yl]phenyl]methyl]-2,3-dihydro-1λ^6,5-benzothiazepin-4-one]	2320	25200	164	645

Further lines, with some results ahead:

IC50 [1] [nM]	IC50 [2] [nM]	Structure (SMILES)	Emax IL2 (% activation) (primary human T-cells)	EC50 (primary human T-cells) [nM]
488	2360	Cn1ccc(-c2ccc(CN3C(=O)[C@@H](N)CS(=O)(=O)c4cc(F)c(-c5nnc(C(C)(C)C)o5)cc43)cc2)n1 [Example 1, (3R)-3-amino-7-(5-tert-butyl-1,3,4-oxadiazol-2-yl)-8-fluoro-5-[[4-(1-methylpyrazol-3-yl)phenyl]methyl]-1,1-dioxo-2,3-dihydro-1λ^6,5-benzothiazepin-4-one]	91	1310
128	613	Cc1noc(-c2ccc(CN3C(=O)[C@@H](N)CS(=O)(=O)c4cc(F)c(-c5nnc(C(C)(C)C)o5)cc43)cc2)n1 [Example 2]	168	891
696	1870	CC(C)Nc1nnc(-c2cc3c(cc2F)S(=O)(=O)C[C@H](N)C(=O)N3Cc2ccc(-c3noc(C(F)(F)F)n3)cc2)o1 [Example 6, (3R)-3-amino-8-fluoro-7-[5-(isopropylamino)-1,3,4-oxadiazol-2-yl]-1,1-dioxo-5-[[4-[5-(trifluoromethyl)-1,2,4-oxadiazol-3-yl]phenyl]methyl]-2,3-dihydro-1λ^6,5-benzothiazepin-4-one]	212	1170
1400	> 62500	CC(C)(C)c1nc(-c2cc3c(cc2F)S(=O)(=O)C[C@H](N)C(=O)N3Cc2ccc(-c3ccc(CO)cc3)nc2)no1 [Example 7, (3R)-3-amino-7-(5-tert-butyl-1,2,4-oxadiazol-3-yl)-8-fluoro-5-[[6-[4-(hydroxymethyl)phenyl]-3-pyridyl]methyl]-1,1-dioxo-2,3-dihydro-1λ^6,5-benzothiazepin-4-one]	38	> 10000
466	40300	N[C@H]1CS(=O)(=O)c2cc(F)c(-c3noc(N4CCCC4)n3)cc2N(Cc2ccc(-c3noc(C(F)(F)F)n3)nc2)C1=O [Example 15, (3R)-3-amino-8-fluoro-1,1-dioxo-7-(5-pyrrolidin-1-yl-1,2,4-oxadiazol-3-yl)-5-[[6-[5-(trifluoromethyl)-1,2,4-oxadiazol-3-yl]-3-pyridyl]methyl]-2,3-dihydro-1λ^6,5-benzothiazepin-4-one]	39	> 10000
1240	4960	Cc1noc(-c2ccc(CN3C(=O)[C@@H](N)CS(=O)(=O)c4ccc(-c5nnc(C(C)(C)C)o5)cc43)cc2)n1 [Example 20, (3R)-3-amino-7-(5-tert-butyl-1,3,4-oxadiazol-2-yl)-5-[[4-(3-methyl-1,2,4-oxadiazol-5-yl)phenyl]methyl]-1,1-dioxo-2,3-dihydro-1λ^6,5-benzothiazepin-4-one]	82	7630
2310	16800	Cn1ccc(-c2ccc(CN3C(=O)[C@@H](N)CS(=O)(=O)c4ccc(-c5nnc(C(C)(C)C)o5)cc43)cc2)n1 [Example 21]	53	8010
523	1530	CC(C)(C)c1nnc(-c2ccc3c(c2)N(Cc2ccc(-c4noc(C(F)(F)F)n4)cc2)C(=O)[C@@H](N)CS3(=O)=O)o1 [Example 23, (3R)-3-amino-7-(5-tert-butyl-1,3,4-oxadiazol-2-yl)-1,1-dioxo-5-[[4-[5-(trifluoromethyl)-1,2,4-oxadiazol-3-yl]phenyl]methyl]-2,3-dihydro-1λ^6,5-benzothiazepin-4-one]	120	769
842	7280	CC(C)(C#N)c1nnc(-c2ccc3c(c2)N(Cc2ccc(-c4ccc(C(F)(F)F)cn4)cc2)C(=O)[C@@H](N)CS3(=O)=O)o1 [Example 47]	163	670
